According to patent publication US20040121965A1, “Method of treating resistant tumors” (Wyeth Holdings Corporation, priority 2002, published 2004):
Read-outs that look alike come from different tables or passages of the source.

Key:
KB-3-1 = test: Cell survival assay (SRB), KB-3-1; type: cell-based, human; settings: Homo sapiens, KB 3-1, KB-3-1 cells (paclitaxel-sensitive parent); read-out: In vitro IC50 (nM) KB-3-1
Excerpt: Cells lines with previously known mechanisms of resistance. […] Res. 8: 207-218,1996); KB-3-1 (parental derived from an epidermoid carcinoma), KB-8.5, KB-V1 (Akiyama S-I, Fojo A, Hanover J A, Pastan I, Gottesman M M. Isolation and genetic characterization of human KB cell lines resistant to multiple drugs. Somatic Cell Mol. Gen., 11: 117-126,1985; Shen D-W, Cardarelli C, Hwang J, Cornwell M, Richert N, Ishii S, Pastan I, Gottesman MM. […] J. Biol. Chem., 261: 7762-7770, 1986); and HL-60 (parental derived from human leukemia) and HL60/AR (McGrath T., Center M. S. Adriamycin resistance in HL60 cells in the absence of detectable P-glycoprotein. Biochem. Res. Commun., 145:1171-1176,1987); A549 and A549.EpoB40 (He L., Yang C.-P.H., Horwitz S. B. Mutations in p-tubulin map to domains involved in regulation of microtubule stability in epothilone-resistant cell lines. Molecular Cancer Therapeutics. 1: 3-10, 2001). HCT-15 human colon carcinoma and DLD-1 human colon carcinoma are obtained from American Tissue Culture Collection. The MX-1W carcinoma is a Wyeth variant orginally obtained as MX-1 breast carcinoma from the National Cancer Institute. Cell lines selected for resistance to Representative Example 129. KB-3-1 cells are selected for resistance to Example 129 by chronically exposing cells to increasing concentrations of Example 129.
2.2. Cell Survival Assay: Standard Pharmacological Test Procedure. The concentration of candidate inhibitor required to inhibit 50% of cell growth (IC50) is done according to previously reported methods. […] Compounds are serially diluted into media as 2× stocks and 100 μl added to cells in duplicate. Compounds are incubated with cells for 3 days. At the end of the incubation period the sulforhodamine B (SRB) assay, which measures protein content as an assessment of cell survival, is performed as described previously (Skehan P, Storeng R, Scudiero D, Monks A, McMahon J, Vistica D, Warren J T, Bokesch H, Kenney S, Boyd MR. New calorimetric cytotoxicity assay for anticancer-drug screening. J Natl Cancer Inst 1990 Jul 4;82(13):1107-12) with some modification as follows. For KB-3-1 cells with 20% FCS, media is gently decanted and replaced with 200 μl of serum-free media mixed with cold 50% TCA for a final concentration of 10% TCA. The plates are incubated for 1 hr at 4° C., followed by washing 5 times in cold distilled water, then air dried overnight. The fixed cells are stained for 10 min with 80 μl of 0.04% SRB solution prepared in 1% glacial acetic acid. Stain is discarded and plates washed 5 times in 1% glacial acetic acid, then air-dried until completely dry. Stained cell product is dissolved in 150 μl of 10 mM Trizma Base and placed on a shaker for 20 minutes until fully dissolved. Absorbance is read on a Victor V multi-label plate reader (Perkin Elmer, Gaithersburg, Md.).

KB-8-5 (MDR1+) = test: Cell survival assay (SRB), KB-8-5 (MDR1+); settings: for IC50: Homo sapiens, MDR1, read-out: In vitro IC50 (nM) KB85
KB-V1 (MDR1++) = test: Cell survival assay (SRB), KB-V1 (MDR1++); settings: for IC50: Homo sapiens
[1] = read-out: In vitro IC50 (nM) KBV1

Structure (SMILES)	IC50 (KB-3-1) [nM]	Ratio KB85/KB (KB-8-5 (MDR1+))	IC50 (KB-8-5 (MDR1+)) [nM]	Ratio KBV1/KB (KB-V1 (MDR1++))	IC50 (KB-V1 (MDR1++); [1]) [nM]	IC50 (KB-V1 (MDR1++); read-out: In vitro IC50 KBV1) [nM]
CCOC(=O)/C(C)=C/[C@H](C(C)C)N(C)C(=O)[C@@H](NC(=O)[C@H](NC)C(C)(C)c1cccc(C)c1)C(C)(C)C [Example 7b, N,β,β,3-tetramethyl-D-phenylalanyl-N^1-[(1S,2E)-4-ethoxy-1-isopropyl-3-methyl4-oxo-2-butenyl]-N^1,3-dimethyl-L-valinamide]	263	6.5	1700	11.4	≥ 3000	
CN[C@H](C(=O)N[C@H](C(=O)N(C)[C@H](/C=C(\C)C(=O)O)C(C)C)C(C)(C)C)C(C)(C)c1ccccc1OC [Example 55, 2-Methoxy-N,β,β-trimethyl-L-phenylalanyl-N^1-[(1S,2E)-3-carboxy-1-isopropyl-2-butenyl]-N^1,3-dimethyl-L-valinamide]	1.7	2.6	4.4	112.1	190	
CN[C@H](C(=O)N[C@H](C(=O)N(C)[C@H](/C=C(\C)C(=O)O)C(C)C)C(C)(C)C)C(C)(C)c1cccc(F)c1 [Example 60, 3-Fluoro-N,β,β-trimethyl-L-phenylalanyl-N^1-[(1S,2E)-3-carboxy-1-isopropyl-2-butenyl]-N^1,3-dimethyl-L-valinamide]	0.997	1.8	1.8	77.4	77	
CCOC(=O)/C(C)=C/[C@H](C(C)C)N(C)C(=O)[C@@H](NC(=O)C(NC)C(C)(C)c1csc2ccccc12)C(C)(C)C (stereo partly drawn) [Example 25, 3-(1-Benzothien-3-yl)-N-methylvalyl-N^1-[(l S,2E)-4-ethoxy-1-isopropyl-3-methyl4-oxo-2-butenyl]-N^1,3-dimethyl-L-valinamide]	479	3.2	1510	6.2	2950	
CN[C@@H](C(=O)N[C@H](C(=O)N(C)[C@H](/C=C(\C)C(=O)O)C(C)C)C(C)(C)C)C(C)(C)c1cccc(Cl)c1 [Example 3, 3-Chloro-N,β,β-trimethyl-D-phenylalanyl-N^1-[(1S,2E)-3-carboxy-1-isopropyl-2-butenyl]-N^1,3-dimethyl-L-valinamide]	15.1	1.3	20	76.0	1150	
CCOC(=O)/C(C)=C/[C@H](C(C)C)N(C)C(=O)[C@@H](NC(=O)[C@H](NC)C(C)(C)c1ccc(C)cc1)C(C)(C)C [Example 10b, N,β,β,4-tetramethyl-D-phenylalanyl-N^1-[(1S,2E)-4-ethoxy-1-isopropyl-3-methyl-4-oxo-2-butenyl]-N^1,3-dimethyl-L-valinamide]	447	3.9	1740	6.7	≥ 3000	
CCN(C(=O)[C@@H](NC(=O)[C@@H](NC)C(C)(C)c1ccccc1)C(C)(C)C)[C@H](/C=C(\C)C(=O)O)C(C)C.O=C(O)C(F)(F)F [Example 94, N,β,β-trimethyl-L-phenylalanyl-N^1-[(1S,2E)-3-carboxy-1-isopropylbut-2-enyl]-N^1-ethyl-3-methyl-L-valinamide Trifluoroacetic Acid]	109	1.8	197	27.5	≥ 3000	
CCC(CC)(c1ccccc1)[C@@H](NC)C(=O)N[C@H](C(=O)N(C)[C@H](/C=C(\C)C(=O)O)C(C)C)C(C)(C)C [Example 126, β,β-diethyl-N-methyl-D-phenylalanyl-N^1-[(1S,2E)-3-carboxy-1-isopropylbut-2-enyl]-N^1,3-dimethyl-L-valinamide]	18	1.3	23	63.3	1140	
C/C(=C\[C@H](C(C)C)N(C)C(=O)[C@@H](NC(=O)[C@@H](N)Cc1cccc2ccccc12)C(C)(C)C)C(=O)O [Example 130, (2E,4S)-4-[((2S)-2-{[(2S)-2-Amino-3-(1-naphthyl)propanoyl]amino}-3,3-dimethylbutanoyl)(methyl)amino]-2,5-dimethyl-2-hexenoic Acid]	60.2	1.4	87	49.8	≥ 3000	
CCOC(=O)/C(C)=C/[C@H](C(C)C)N(C)C(=O)[C@@H](NC(=O)[C@@H](NC)C(C)(C)c1ccc(C)cc1)C(C)(C)C [Example 10a, N,β,β,4-Tetramethyl-L-phenylalanyl-N^1-[(1S,2E)-4-ethoxy-1-isopropyl-3-methyl4-oxo-2-butenyl]-N^1,3-dimethyl-L-valinamide]	33.9	15.5	525	52.4	1780	
CNC(C(=O)N[C@H](C(=O)N(C)[C@H](/C=C(\C)C(=O)O)C(C)C)C(C)(C)C)C1(c2ccccc2)CC1 (stereo in doubt) [Example 143, (2E,4S)-2,5-dimethyl-4-(methyl{3-methyl-N-[(2R)-2-(methylamino)-2-(1-phenylcyclopropyl)acetyl]-L-valyl}amino)hex-2-enoic Acid]	27	2.1	57	61.6	1660	
CN[C@H](C(=O)N[C@H](C(=O)N(C)[C@H](/C=C(\C)C(=O)O)C(C)C)C(C)(C)S(C)(=O)=O)C(C)(C)c1ccccc1 [Example 81, N,β,β-trimethyl-L-phenylalanyl-N^1-[(1S,2E)-3-carboxy-1-isopropyl-2-butenyl]-N^1-methyl-3-(methylsulfonyl)-L-valinamide]	178	3.3	589	16.9	≥ 3000	
CN[C@H](C(=O)N[C@H](C(=O)N[C@H](/C=C(\C)C(=O)O)C(C)C)C(C)C)C(C)(C)c1ccccc1.O=C(O)C(F)(F)F [Example 102, N,β,β-trimethyl-L-phenylalanyl-N^1-[(1S,2E)-3-carboxy-1-isopropylbut-2-enyl]-L-valinamide Trifluoroacetic Acid]	371	1.7	618	8.1	≥ 3000	
CN[C@H](C(=O)N[C@H](C(=O)N(C)[C@H](/C=C(\C)C(=O)O)C(C)C)C(C)(C)C)C(C)(C)c1ccsc1 [Example 23, N-Methyl-3-thien-3-yl-L-valyl-N^1-[(1S,2E)-3-carboxy-1-isopropylbut-2-enyl]-N^1,3-dimethyl-L-valinamide]	2.1	3.1	6.6	345.0	724	
CN[C@H](C(=O)N[C@@H](C(=O)N(C)[C@H](/C=C(\C)C(=O)O)C(C)C)C(C)(C)F)C(C)(C)c1ccccc1 [Example 148, N,β,β-trimethyl-L-phenylalanyl-N^1-[(1S,2E)-3-carboxy-1-isopropylbut-2′enyl]-3-fluoro-N^1-methyl-D-valinamide]	88	2.2	193	34.1	> 3000	
CN[C@@H](C(=O)N[C@H](C(=O)N(C)[C@H](/C=C(\C)C(=O)O)C(C)C)C(C)(C)C)C(C)(C)c1cc(C(F)(F)F)cc(C(F)(F)F)c1 [Example 67, N,β,β-trimethyl-3,5-bis(trifluoromethyl)-D-phenylalanyl-N^1-[(1S,2E)-3-carboxy-1-isopropylbut-2-enyl]-N^1,3-dimethyl-L-valinamide]	170	1.1	186			> 3000
